This note sets out measurements from patent publication US8999970B2, “Administration of an anti-obesity compound to individuals with renal impairment” (Arena Pharmaceuticals, Inc., priority 2010, dated 2015).

Entries after “also recorded” stand apart in the source; their conditions may differ.

A short description of this series: Dynamic moisture (vapor) sorption of Form III. The format is physicochemical.

Take `C[C@H]1CNCCc2ccc(Cl)cc21.C[C@H]1CNCCc2ccc(Cl)cc21.Cl.Cl.O` [(R)-8-chloro-1-methyl-2,3,4,5-tetrahydro-1H-3-benzazepine hydrochloride hemihydrate, Form III]: the “Hygroscopicity (DMS / DVS)” value is reported as “substantially non-hygroscopic; also recorded: FIG. 9: non-hygroscopic”. Moreover, the Water adsorbed entry (90% RH) is “less than 0.5 wt %”.
